From patent US10441620B2, “Method for protection of bladder from damage” (Wellstrong Biotech Co., Ltd., priority 2016, dated 2019)

Test: CUPRAC assay for total antioxidants
Conditions: absorbance at 450 nm
Procedure: The CUPRAC assay was utilized to determine the total antioxidant capacity. This assay relies on the electron donating capabilities of antioxidants to reduce the copper ion. The CUPRAC working solution consisted of 10 mM copper (II) chloride dihydrate, 1M ammonium acetate, and 7.5 mM neocuproine. 0.15 mL of the above three solutions were added to 0.15 mL of each sample and allowed to react for 30 minutes at room temperature, after which the absorbance was read at 450 nm in a Hitachi U-2001 spectrophotometer.

In the case of `O=C1O[C@H]([C@@H](O)CO)C(O)=C1O` [ascorbic acid], the “total antioxidant activity (antioxidant value of standard curve)” value is reported as 27±1.7 mg Ascorbic acid per mOD optical density.
